As a reminder, the melting point is the temperature of the solid-liquid transition.

Our source for the melting point values is patent US6949542B2, “Dihydro-benzo[b][1,4]diazepin-2-one derivatives” (Hoffman-La Roche Inc., priority 2002, dated 2005).

In turn, `Cc1cc(-c2cccc(C3=Nc4cc(C)c(Cl)cc4NC(=O)C3)c2)nc(NCCO)n1` [Example 323, 8-Chloro-4-{3-[2-(2-hydroxy-ethylamino)-6-methyl-pyrimidin-4-yl]-phenyl}-7-methyl-1,3-dihydro-benzo[b][1,4]diazepin-2-one] displayed a melting point of 197 to 199 °C.

Regarding `COCCNc1nc(C)cc(-c2cccc(C3=Nc4cc(C)c(C(F)(F)F)cc4NC(=O)C3)c2)n1` [Example 324, 4-{3-[2-(2-Methoxy-ethylamino)-6-methyl-pyrimidin-4-yl]-phenyl}-7-methyl-8-trifluoromethyl-1,3-dihydro-benzo[b][1,4]diazepin-2-one], the melting point lay in the range of 236 to 238 °C. For `COCCNc1nc(C)cc(-c2cccc(C3=Nc4cc(C)c(Cl)cc4NC(=O)C3)c2)n1` [Example 325, 8-Chloro-4-{3-[2-(2-methoxy-ethylamino)-6-methyl-pyrimidin-4-yl]-phenyl}-7-methyl-1,3-dihydro-benzo[b][1,4]diazepin-2-one], the melting point lay within 222 to 224 °C. As for `Cc1cc2c(cc1C(F)(F)F)NC(=O)CC(c1cccc(-c3cc(N)ncn3)c1)=N2` [Example 328, 4-[3-(6-Amino-pyrimidin-4-yl)-phenyl]-7-methyl-8-trifluoromethyl-1,3-dihydro-benzo[b][1,4]diazepin-2-one], the melting point lay within 201 to 205 °C. `Cc1cc2c(cc1Cl)NC(=O)CC(c1cccc(-c3cc(N)ncn3)c1)=N2` [Example 329, 4-[3-(6-Amino-pyrimidin-4-yl)-phenyl]-8-chloro-7-methyl-1,3-dihydro-benzo[b][1,4]diazepin-2-one] came in with a melting point of 228 to 233 °C. Then `CNc1cc(-c2cccc(C3=Nc4cc(C)c(C(F)(F)F)cc4NC(=O)C3)c2)ncn1` [Example 330, 7-Methyl-4-[3-(6-methylamino-pyrimidin-4-yl)-phenyl]-8-trifluoromethyl-1,3-dihydro-benzo[b][1,4]diazepin-2-one], with 232 to 233 °C; and `CNc1cc(-c2cccc(C3=Nc4cc(C)c(Cl)cc4NC(=O)C3)c2)ncn1` [Example 331, 8-Chloro-7-methyl-4-[3-(6-methylamino-pyrimidin-4-yl)-phenyl]-1,3-dihydro-benzo[b][1,4]diazepin-2-one], with 240 to 243 °C; and `Cc1cc2c(cc1C(F)(F)F)NC(=O)CC(c1cccc(-c3cc(N(C)C)ncn3)c1)=N2` [Example 332, 4-[3-(6-Dimethylamino-pyrimidin-4-yl)-phenyl]-7-methyl-8-trifluoromethyl-1,3-dihydro-benzo[b][1,4]diazepin-2-one], with 239 to 242 °C. Then `Cc1cc2c(cc1Cl)NC(=O)CC(c1cccc(-c3cc(N(C)C)ncn3)c1)=N2` [Example 333, 8-Chloro-4-[3-(6-dimethylamino-pyrimidin-4-yl)-phenyl]-7-methyl-1,3-dihydro-benzo[b][1,4]diazepin-2-one], with 226 to 228 °C.

In the case of `COCCNc1cc(-c2cccc(C3=Nc4cc(C)c(Cl)cc4NC(=O)C3)c2)ncn1` [Example 334, 8-Chloro-4-{3-[6-(2-methoxy-ethylamino)-pyrimidin-4-yl]-phenyl}-7-methyl-1,3-dihydro-benzo[b][1,4]diazepin-2-one], the melting point fell in the range of 211 to 213 °C. Take `Cc1cc2c(cc1Cl)NC(=O)CC(c1cccc(-c3ncccn3)c1)=N2` [Example 335, 8-Chloro-7-methyl-4-(3-pyrimidin-2-yl-phenyl)-1,3-dihydro-benzo[b][1,4]diazepin-2-one]: the melting point fell in the range of 223 to 227 °C.

In turn, `CN(C)c1cc2c(cc1C(F)(F)F)NC(=O)CC(c1cccc(-c3ncccn3)c1)=N2` [Example 337, 7-Dimethylamino-4-(3-pyrimidin-2-yl-phenyl)-8-trifluoromethyl-1,3-dihydro-benzo[b][1,4]diazepin-2-one] yielded a melting point of 221 to 223 °C. The compound `O=C1CC(c2cccc(-c3ncccn3)c2)=Nc2ccc(C(F)(F)F)cc2N1` [Example 338, 4-(3-Pyrimidin-2-yl-phenyl)-8-trifluoromethyl-1,3-dihydro-benzo[b][1,4]diazepin-2-one] showed a melting point of 236 to 237 °C. In the case of `O=C1CC(c2cccc(-c3ncccn3)c2)=Nc2ccc(Cl)cc2N1` [Example 339, 8-Chloro-4-(3-pyrimidin-2-yl-phenyl)-1,3-dihydro-benzo[b][1,4]diazepin-2-one], the melting point fell in the range of 217 to 222 °C.

For the compound `O=C1CC(c2cccc(-c3ncccn3)c2)=Nc2cc(Cl)c(Cl)cc2N1` [Example 340, 7,8-Dichloro-4-(3-pyrimidin-2-yl-phenyl)-1,3-dihydro-benzo[b][1,4]diazepin-2-one], the melting point was 227 to 230 °C. The result for `Cc1nnc(-c2cccc(C3=Nc4cc(N(C)C)c(C(F)(F)F)cc4NC(=O)C3)c2)nc1C` [Example 343, 7-Dimethylamino-4-[3-(5,6-dimethyl-[1,2,4]triazin-3-yl)-phenyl]-8-trifluoromethyl-1,3-dihydro-benzo[b][1,4]diazepin-2-one] reads 233 to 236 °C; that for `Cc1cc(C2CC2)ncc1-c1cccc(C2=Nc3ccc(C(F)(F)F)cc3NC(=O)C2)c1` [Example 344, 4-[3-(6-Cyclopropyl-4-methyl-pyridin-3-yl)-phenyl]-8-trifluoromethyl-1,3-dihydro-benzo[b][1,4]diazepin-2-one], 119 °C; that for `O=C1CC(c2cccc(-c3ccnc(C4CC4)c3)c2)=Nc2ccc(C(F)(F)F)cc2N1` [Example 346, 4-[3-(2-Cyclopropyl-pyridin-4-yl)-phenyl]-8-trifluoromethyl-1,3-dihydro-benzo[b][1,4]diazepin-2-one], 181 °C.

Regarding `Cc1cc2c(cc1C(F)(F)F)NC(=O)CC(c1cccc(-c3ccnc(C4CC4)c3)c1)=N2` [Example 347, 4-[3-(2-Cyclopropyl-pyridin-4-yl)-phenyl]-7-methyl-8-trifluoromethyl-1,3-dihydro-benzo[b][1,4]diazepin-2-one], the melting point is 232 °C. In turn, `CCOc1cc2c(cc1C(F)(F)F)NC(=O)CC(c1cccc(-c3ccnc(C4CC4)c3)c1)=N2` [Example 348, 4-[3-(2-Cyclopropyl-pyridin-4-yl)-phenyl]-7-ethoxy-8-trifluoromethyl-1,3-dihydro-benzo[b][1,4]diazepin-2-one] came in with a melting point of 244 °C. Then `O=C1CC(c2cccc(-c3ccnc(C4CC4)c3)c2)=Nc2cc(OCC(F)(F)F)c(C(F)(F)F)cc2N1` [Example 349, 4-[3-(2-Cyclopropyl-pyridin-4-yl)-phenyl]-7-(2,2,2-trifluoro-ethoxy)-8-trifluoromethyl-1,3-dihydro-benzo[b][1,4]diazepin-2-one], with 218 °C. The result for `Cc1cc(-c2cccc(C3=Nc4cc(C5CC5)c(C(F)(F)F)cc4NC(=O)C3)c2)ccn1` [Example 350, 7-Cyclopropyl-4-[3-(2-methyl-pyridin-4-yl)-phenyl]-8-trifluoromethyl-1,3-dihydro-benzo[b][1,4]diazepin-2-one] reads 205 to 211 °C. Then `Cc1cc2c(cc1C(F)(F)F)NC(=O)CC(c1cccc(-c3ccnc(C4CCCC4)c3)c1)=N2` [Example 351, 4-[3-(2-Cyclopentyl-pyridin-4-yl)-phenyl]-7-methyl-8-trifluoromethyl-1,3-dihydro-benzo[b][1,4]diazepin-2-one], with 218 to 219 °C; and `O=C1CC(c2cccc(-c3ccnc(C4CCCC4)c3)c2)=Nc2ccc(C(F)(F)F)cc2N1` [Example 352, 4-[3-(2-Cyclopentyl-pyridin-4-yl)-phenyl]-8-trifluoromethyl-1,3-dihydro-benzo[b][1,4]diazepin-2-one], with 165 to 167 °C.

In turn, `CCOc1cc2c(cc1C(F)(F)F)NC(=O)CC(c1cccc(-c3ccnc(C4CCCC4)c3)c1)=N2` [Example 353, 4-[3-(2-Cyclopentyl-pyridin-4-yl)-phenyl]-7-ethoxy-8-trifluoromethyl-1,3-dihydro-benzo[b][1,4]diazepin-2-one] showed a melting point of 192 to 193 °C. Turning to `O=C1CC(c2cccc(-c3ccnc(C4CCCC4)c3)c2)=Nc2cc(OCC(F)(F)F)c(C(F)(F)F)cc2N1` [Example 354, 4-[3-(2-Cyclopentyl-pyridin-4-yl)-phenyl]-7-(2,2,2-trifluoro-ethoxy)-8-trifluoromethyl-1,3-dihydro-benzo[b][1,4]diazepin-2-one], the melting point was 147 to 148 °C.

`Cc1cc2c(cc1C(F)(F)F)NC(=O)CC(c1cccc(-c3ccnc(CN(C)CC(C)C)c3)c1)=N2` [Example 360, 4-(3-{2-[(Isobutyl-methyl-amino)-methyl]-pyridin-4-yl}-phenyl)-7-methyl-8-trifluoromethyl-1,3-dihydro-benzo[b][1,4]diazepin-2-one] showed a melting point of 188 °C.

On to `COCc1cc(-c2cccc(C3=Nc4cc(C)c(C(F)(F)F)cc4NC(=O)C3)c2)ccn1` [Example 361, 4-[3-(2-Methoxymethyl-pyridin-4-yl)-phenyl]-7-methyl-8-trifluoromethyl-1,3-dihydro-benzo[b][1,4]diazepin-2-one], for which the melting point stood at 225 °C. For `Cc1cc(-c2cccc(C3=Nc4cc(N(C)CC(C)C)c(C(F)(F)F)cc4NC(=O)C3)c2)ccn1` [Example 362, 7-(Isobutyl-methyl-amino)-4-[3-(2-methyl-pyridin-4-yl)-phenyl]-8-trifluoromethyl-1,3-dihydro-benzo[b][1,4]diazepin-2-one], the melting point was found to be 189 °C. The result for `Cc1cc(-c2cccc(C3=Nc4cc(N(C)C(C)C)c(C(F)(F)F)cc4NC(=O)C3)c2)ccn1` [Example 363, 7-(Isopropyl-methyl-amino)-4-[3-(2-methyl-pyridin-4-yl)-phenyl]-8-trifluoromethyl-1,3-dihydro-benzo[b][1,4]diazepin-2-one] reads 207 °C; that for `Cc1cc(-c2cccc(C3=Nc4cc(N5CCCC5)c(C(F)(F)F)cc4NC(=O)C3)c2)ccn1` [Example 365, 4-[3-(2-Methyl-pyridin-4-yl)-phenyl]-7-pyrrolidin-1-yl-8-trifluoromethyl-1,3-dihydro-benzo[b][1,4]diazepin-2-one], 223 °C. Then `CC(C)CN(C)c1cc2c(cc1C(F)(F)F)NC(=O)CC(c1cccc(-c3ccnc(CO)c3)c1)=N2` [Example 366, 4-[3-(2-Hydroxymethyl-pyridin-4-yl)-phenyl]-7-(isobutyl-methyl-amino)-8-trifluoromethyl-1,3-dihydro-benzo[b][1,4]diazepin-2-one], with 130 °C.
